{"source": "paper PMC10366102", "about": "“Dose escalation and expansion cohorts in patients with advanced breast cancer in a Phase I study of the CDK7-inhibitor samuraciclib” (Nature Communications, 2023)", "key": {"[1]": {"system": "phosphorylation of RNA Pol II, CDK1 and 2", "parameters": "method as in ref IB", "settings": "in vitro and in vivo, tumour and normal cells; ref IB; cited from earlier work"}, "pPolII": {"system": "pPolII", "test": "Immunohistochemistry H-score in paired tumor biopsies, pPolII", "format": "in vivo, human", "protocol": "(§1) Per-protocol ctDNA samples were taken in Module 1B-1 at screening, C1D1, C2D1 and on D1 of alternating cycles from Cycle 3; in Module 2A at screening, C1D1 and at either C2D1 (240 mg) or C2D15 (360 mg) for mutational analysis[24],[33], (Supplementary Information). pPolII in lymphocytes and pPolII and pCDK1/2/3 in core needle tissue samples from patients recruited to the paired biopsy cohort were evaluated for on-target pharmacodynamic analyses. […]\npharmacodynamic effects in tumor tissue. […]\nvariability in H-score was observed between sections. […]\n(§2) H-scores for pre-dose and on-study biopsies and summary statistics for the observed H-score when stained for pCDK1/2/3 and pPolII are shown in Supplementary Table 11. Significance was calculated using Student’s one-tailed paired t-test, where the alternative hypothesis was that on-study samples had"}, "[2]": {"system": "phosphorylated RNA polymerase II (pPolII)", "test": "Flow cytometry of pPolII in lymphocytes (PBMC preparations)", "format": "in vivo, human", "settings": "Module 1A, across all doses, Cycle 2 Day 1", "protocol": "as §1\nwith the sponsor. All investigator sites attended the SRC so that updates on toxicity and MTD could be communicated immediately. No more than 6 participants could be recruited at a non-tolerated dose […]\nA summary of DLTs by cohort is provided in Supplementary Table 5. […]\nCells were analysed cells on a BD Fortessa X20, acquiring 100,000 events. […]\nanalysed using FlowJo (Treestar) version 10.4.2 to report the median fluorescence intensity of staining […]\nalthough not reaching statistical significance due to the low number of patients. pPolII was determined by a flow cytometry assay on samples of peripheral blood mononuclear cell (PBMC) preparations […]\nas §2, with “had […]” for “had”"}, "[3]": {"parameters": "method as in ref IB", "settings": "ref IB; cited from earlier work"}, "CYP2C8": {"system": "CYP2C8", "parameters": "method as in ref IB", "settings": "human microsomes; ref IB; cited from earlier work"}, "[4]": {"parameters": "method as in ref IB", "settings": "ref IB, cited from earlier work"}, "CYP2B6": {"system": "CYP2B6", "parameters": "method as in ref IB", "settings": "human microsomes; ref IB; cited from earlier work"}, "[5]": {"parameters": "method as in ref IB", "settings": "mouse microsomes; ref IB; cited from earlier work"}, "[6]": {"parameters": "method as in ref IB", "settings": "mouse hepatocytes; ref IB; cited from earlier work"}, "Han Wistar rats": {"system": "Han Wistar rats", "settings": "rats 15 or 60 mg/kg/day and beagle dogs 20 mg/kg/day, 7 days; ref IB; cited from earlier work"}}, "note": "Entries after “also recorded” stand apart in the source; their conditions may differ. Like-named read-outs stand apart in the source and are kept apart here.", "data": [{"smiles": "CC(C)c1cnn2c(NCc3ccccc3)cc(NC[C@H]3CCNC[C@@H]3O)nc12", "note": "[samuraciclib, Samuraciclib]", "values": [{"measurement": "Phosphorylation of RNA Pol II, CDK1 and 2", "setting": "[1]", "value": "inhibits the phosphorylation"}, {"measurement": "pPolII H-Score, On study, average", "setting": "pPolII; Average 240mg OD patients, pre-dose 239", "value": 208}, {"measurement": "pPolII H-Score, On study, average", "setting": "pPolII; Average 360mg OD patients, pre-dose 277", "value": 271}, {"measurement": "pPolII H-Score, On study, average", "setting": "pPolII; Average all patients, pre-dose 258", "value": 240}, {"measurement": "pPolII H-Score, On study", "setting": "pPolII; HR+ breast cancer, breast biopsy, 360 mg OD, pre-dose 286", "value": 271}, {"measurement": "pPolII H-Score, On study", "setting": "pPolII; HR+ breast cancer, liver biopsy, 240 mg OD, pre-dose 243", "value": 225}, {"measurement": "pPolII H-Score, On study", "setting": "pPolII; HR+ breast cancer, liver biopsy, 240 mg OD, pre-dose 251", "value": 232}, {"measurement": "pPolII H-Score, On study", "setting": "pPolII; HR+ breast cancer, liver biopsy, 360 mg OD, pre-dose 271", "value": 262}, {"measurement": "pPolII H-Score, On study", "setting": "pPolII; HR+ breast cancer, liver biopsy, 360 mg OD, pre-dose 273", "value": 281}, {"measurement": "pPolII H-Score, On study", "setting": "pPolII; Rhabdomyosarcoma, axilla biopsy, 240 mg OD, pre-dose 223", "value": 167}, {"measurement": "pPolII in tumor tissue", "setting": "pPolII; paired biopsy cohort", "value": "reduction of phosphorylated RNA polymerase II; also recorded: A reduction in pPolII was also seen in tumor tissue"}, {"measurement": "Reduction of pPolII in lymphocytes", "setting": "[2]", "value": "approximately 30%"}, {"measurement": "Phototoxicity", "setting": "[3]", "value": "not phototoxic"}, {"measurement": "IC50", "setting": "CYP2C8", "value": "> 50", "unit": "µM"}, {"measurement": "Overall turnover", "setting": "[4]; human hepatocytes", "value": "low"}, {"measurement": "Phase II metabolism (e.g., glucuronidation)", "setting": "[4]; mouse and human hepatocytes", "value": "No evidence"}, {"measurement": "IC50", "setting": "CYP2B6", "value": "> 50", "unit": "µM"}, {"measurement": "Intrinsic clearance", "setting": "[5]", "value": "intermediate"}, {"measurement": "Overall turnover", "setting": "[6]", "value": "low"}, {"measurement": "Reticulocyte numbers", "setting": "Han Wistar rats", "value": "significant decrease"}]}]}
